Measurements from ChEMBL document CHEMBL3132791, “Improved synthesis of 4-/6-substituted 2-carboxy-1H-indole-3-propionic acid derivatives and structureactivity relationships as GPR17 agonists” (Medchemcomm, 2014).
Active and inactive are the calls of the source. The calls are words filed in the database; no cut-off is given here.

Target: T1, Uracil nucleotide/cysteinyl leukotriene receptor (Homo sapiens, UniProt Q13304)
Assay: Antagonist activity at human GPR17 receptor transfected in 1321N1 astrocytoma cells assessed as intracellular calcium mobilization by flurometric assay
Assay type: functional, cell-based

T1 sequence (Q13304 whole entry): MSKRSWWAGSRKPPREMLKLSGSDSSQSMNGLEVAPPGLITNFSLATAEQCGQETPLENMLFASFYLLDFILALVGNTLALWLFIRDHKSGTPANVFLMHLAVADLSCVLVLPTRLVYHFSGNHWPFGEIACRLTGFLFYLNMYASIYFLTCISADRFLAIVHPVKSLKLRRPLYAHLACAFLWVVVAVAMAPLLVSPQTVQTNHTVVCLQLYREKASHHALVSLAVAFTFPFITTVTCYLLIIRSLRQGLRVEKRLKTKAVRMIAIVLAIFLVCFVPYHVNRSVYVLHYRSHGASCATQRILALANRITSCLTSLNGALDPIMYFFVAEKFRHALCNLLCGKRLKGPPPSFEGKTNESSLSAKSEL

| SMILES | Activity |
| --- | --- |
| COc1cc(OC)c2c(CCC(=O)O)c(C(=O)O)[nH]c2c1 | inactive |

Target: T1, Uracil nucleotide/cysteinyl leukotriene receptor
Assay: Agonist activity at human GPR17 receptor transfected in 1321N1 astrocytoma cells assessed as induction of intracellular calcium mobilization by fluorimetric assay
Assay type: functional, cell-based

| SMILES | EC50 [µM] |
| --- | --- |
| O=C(O)CCc1c(C(=O)O)[nH]c2cc(C(F)(F)F)cc(C(F)(F)F)c12 | 17.1 |
| O=C(O)CCc1c(C(=O)O)[nH]c2cc(Cl)cc(Cl)c12 | 0.331 |
| O=C(O)CCc1c(C(=O)O)[nH]c2cc(Cl)c(F)c(Cl)c12 | 52 |
| O=C(O)CCc1c(C(=O)O)[nH]c2cc(Br)cc(Br)c12 | 0.202 |
| O=C(O)CCc1c(C(=O)O)[nH]c2cc(Br)ccc12 | 2.24 |
| COc1cc(OC)c2c(CCC(=O)O)c(C(=O)O)[nH]c2c1 | > 100 |
| O=C(O)CCc1c(C(=O)O)[nH]c2cccc(Br)c12 | 45.5 |
| O=C(O)CCc1c(C(=O)O)[nH]c2cccc(I)c12 | 36.8 |
